Test results from US7745413B2, “Collection of traceable compounds and uses thereof” (Centre National de la Recherche Scientifique (CNRS), priority 2004, dated 2010).

Target: T1, GPR50-EGFP receptor (Homo sapiens, UniProt Q13585)
T1 construct: signal peptide (SP) of the pCEP4-SP-EGFP vector (N); expressed in transfected cells
Experiment: Real-time measurement of energy transfer (FRET) between fluorescent ligand and GPR50-EGFP receptor on HEK 293 cells
Type: binding
Conditions: ligand at 500 nM; excitation 470 nm, fluorescence at 510 nm; FIG. 6
Text: The binding of certain molecules was verified with the spectrofluorimeter (equipment previously described (see Example 1)).

T1 sequence (Q13585 9-617 limits assumed): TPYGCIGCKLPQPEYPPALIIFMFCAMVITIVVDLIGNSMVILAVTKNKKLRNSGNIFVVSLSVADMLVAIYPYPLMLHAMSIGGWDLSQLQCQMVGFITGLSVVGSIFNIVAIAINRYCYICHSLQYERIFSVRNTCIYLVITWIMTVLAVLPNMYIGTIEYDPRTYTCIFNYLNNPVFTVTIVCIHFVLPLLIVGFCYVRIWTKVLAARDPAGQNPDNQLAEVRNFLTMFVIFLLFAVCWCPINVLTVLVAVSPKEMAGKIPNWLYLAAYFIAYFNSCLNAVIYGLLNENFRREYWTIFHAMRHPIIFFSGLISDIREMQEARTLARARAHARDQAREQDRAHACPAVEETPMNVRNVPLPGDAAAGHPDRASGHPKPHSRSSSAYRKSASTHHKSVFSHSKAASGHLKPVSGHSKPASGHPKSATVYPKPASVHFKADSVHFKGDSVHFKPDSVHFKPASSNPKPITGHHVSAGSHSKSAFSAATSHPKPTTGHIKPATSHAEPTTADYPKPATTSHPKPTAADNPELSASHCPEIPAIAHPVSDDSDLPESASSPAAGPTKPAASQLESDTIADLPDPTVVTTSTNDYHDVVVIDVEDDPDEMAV

With `CCN(CCN(CC)C(=O)C(Cc1c[nH]c2ccccc12)NC(=O)C(CCCCNS(=O)(=O)c1ccc2c(c1)S(=O)(=O)OC21c2ccc(N(CC)CC)cc2Oc2cc(N(CC)CC)ccc21)NC(=O)C1=CCCN(C)C1)Cc1ccccc1` (stereo not shown) [FG 229 F4] the energy transfer was 2%.
